According to patent US20060100258A1, “Growth promotion method” (priority 2003, published 2006):

How the values were obtained:
Type in all cases: in vivo
day-old broiler chicks = assay: Determination of dose range: maximum tolerated oral dose in day-old broiler chicks
Experimental: (§1) Day-old chicks were orally administered Iksin in DMSO at 100 μg/g, 125 μg/g, 150 μg/g and 200 μg/g body weight and in Distilled Water (DW)/5% Tween-20 at 100 μg/g, 200 μg/g, 400 μg/g and 500 μg/g body weight.
The maximum tolerated oral dose of Iksin for day-old broiler chicks was 200 μg/g Iksin/DMSO and ≧500 μg/g in DW/T20.

[1] = Plasma/blood levels of Iksin in chicks after a single oral dose; conditions: for peak levels (blood/plasma): observed at 48 h (FIG. 1)
Experimental: FIG. 1 is a graph showing plasma levels of Iksin in chicks after treatment with Iksin at 100 μg/g in DMSO and at 400 μg/g in distilled water/Tween20; and
as §1

chicks = assay: Effect on chick growth: weight gain after a single treatment
Experimental: FIG. 2 is a graph showing the average percentage weight increase in chicks after single dosing with Iksin at 12 μg/g in DMSO, 100 μg/g in DMSO, 200 μg/g in distilled water/Tween20 and 400 μg/g in distilled water/tween20 compared to untreated chicks.
as §1
Treatment with Iksin 12 μg/g DMSO, 200 and 400 μg/g DW/T20 gave a mean weight gain of 17%.

C/C(=C\c1ccc2c(c1)OCO2)[N+](=O)[O-] [Iksin, 3,4-methylenedioxy-β-methyl-β-nitrostyrene]
maximum tolerated oral dose (day-old broiler chicks; Iksin in DMSO): 200 µg/g
maximum tolerated oral dose (day-old broiler chicks; Iksin in DW/T20 (distilled water/5% Tween-20)): ≥ 500 µg/g
Iksin blood levels ([1]; single oral dose 12 μg/g DMSO): below the limits of detection
peak levels (blood/plasma) ([1]; single oral dose 100 μg/g DMSO): 850 µg/g
Iksin blood levels ([1]; single oral dose 200 μg/g DW): below the limits of detection
peak levels (blood/plasma) ([1]; single oral dose 400 μg/g DW): 850 µg/g
absorption from a single oral dosing ([1]; single oral dosing): Very little Iksin was absorbed
weight gain in chicks (chicks; all doses and formulations, 4 days after a single treatment (FIG. 2)): increased weight gain
mean weight gain (chicks; chicks, Iksin 12 μg/g DMSO, 200 and 400 μg/g DW/T20 (mean of these groups), 4 days after a single treatment): 17%
increase in weight gain over the group of control chicks (chicks; chicks, Iksin 100 μg/g DMSO, 4 days after a single treatment): 32%
